The source of these data is patent US11278602B2, “Medicine for Covid-19 and treatment” (Therapeutica Borealis Oy, priority 2020, dated 2022).

For data set [1] the following is noted: components of the nasal spray; cited from earlier work.
The nature of data set [2]: pKa / protonation state of weak base. Type of data set: physicochemical. As to conditions: per the Henderson-Hasselbalch equation. The text has this: Nicotine is also known to be a weak base, pH 8.5. It has been shown in earlier in vitro studies that it could inhibit receptor mediated endosytosis. Due to the fact that it is a weak base it could penetrate cell membrane especially at pH near its isoelectric point and thus it may also effect glycosylation at Golgi compartment.

A value given as a limit tells only on which side of the number the result lay.

In the case of Aprotinin, the solubility in water in data set [1] is greater than 10 mg/mL. Regarding Ivermectin, in data set [1], the solubility in water is 50 mg/mL. Regarding `CCN(CC)CCCC(C)Nc1ccnc2cc(Cl)ccc12` (stereo not shown) [chloroquine], the “deprotonated at physiological pH” value in data set [2] was “about 10%”. With `CCN(CCO)CCCC(C)Nc1ccnc2cc(Cl)ccc12` (stereo not shown) [Hydroxychloroquine], the solubility in water entry in data set [1] is listed as “at least 200 mg/mL”.
